Active and inactive are the calls of the source.
Legend:
[1] = target: T1, Eukaryotic translation initiation factor 2-alpha kinase 3 (Homo sapiens, UniProt Q9NZJ5); experiment: Counterscreen assay for PERK inhibitors: Dose response cell-based high throughput screening assay to measure inhibition of PERK at 6 hours. [Related pubchem assays: 1522, 1416 ]; assay type: functional
T1 sequence (Q9NZJ5 whole entry): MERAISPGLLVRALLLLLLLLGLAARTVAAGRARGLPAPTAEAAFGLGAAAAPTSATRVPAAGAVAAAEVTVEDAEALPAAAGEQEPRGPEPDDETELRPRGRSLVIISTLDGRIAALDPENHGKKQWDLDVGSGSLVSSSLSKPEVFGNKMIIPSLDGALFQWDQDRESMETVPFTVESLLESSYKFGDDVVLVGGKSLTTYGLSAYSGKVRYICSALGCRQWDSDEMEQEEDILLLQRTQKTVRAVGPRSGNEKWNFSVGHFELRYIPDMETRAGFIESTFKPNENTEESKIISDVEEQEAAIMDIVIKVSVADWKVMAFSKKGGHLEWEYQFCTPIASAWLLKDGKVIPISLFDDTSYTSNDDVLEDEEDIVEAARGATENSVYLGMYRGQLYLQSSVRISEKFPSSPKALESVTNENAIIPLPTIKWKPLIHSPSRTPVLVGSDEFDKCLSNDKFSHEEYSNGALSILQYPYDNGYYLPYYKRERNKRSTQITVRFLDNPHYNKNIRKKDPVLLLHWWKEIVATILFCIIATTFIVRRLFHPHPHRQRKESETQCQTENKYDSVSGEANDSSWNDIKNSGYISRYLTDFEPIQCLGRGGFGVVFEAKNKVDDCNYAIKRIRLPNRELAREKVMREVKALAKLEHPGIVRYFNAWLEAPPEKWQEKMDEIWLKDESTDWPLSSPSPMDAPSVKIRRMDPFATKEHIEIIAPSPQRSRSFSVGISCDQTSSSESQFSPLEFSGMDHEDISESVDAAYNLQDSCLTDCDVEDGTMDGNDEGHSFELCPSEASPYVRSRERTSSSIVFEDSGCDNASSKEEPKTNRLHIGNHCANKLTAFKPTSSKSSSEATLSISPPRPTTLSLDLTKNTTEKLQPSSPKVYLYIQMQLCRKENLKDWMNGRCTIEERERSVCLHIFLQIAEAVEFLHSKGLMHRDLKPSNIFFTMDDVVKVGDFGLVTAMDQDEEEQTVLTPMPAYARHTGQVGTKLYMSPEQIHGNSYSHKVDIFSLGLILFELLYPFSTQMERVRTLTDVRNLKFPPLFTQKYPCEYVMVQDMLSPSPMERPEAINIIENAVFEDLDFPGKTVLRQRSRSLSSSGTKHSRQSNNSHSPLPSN

[2] = target: T1, Eukaryotic translation initiation factor 2-alpha kinase 3; experiment: Dose response cell-based high-throughput screening assay to measure PERK inhibition. [Related pubchem assays: 1416 ]; assay type: functional
[3] = target: T2, Acyl-homoserine lactone acylase PvdQ (Pseudomonas aeruginosa (strain LESB58), UniProt Q9I194); experiment: PvdQ acylase enzyme activity blockers – biochemical, fluorescence, plate reader and imaging, cherry-picks, dose response (AID 493231)
T2 sequence (Q9I194 whole entry): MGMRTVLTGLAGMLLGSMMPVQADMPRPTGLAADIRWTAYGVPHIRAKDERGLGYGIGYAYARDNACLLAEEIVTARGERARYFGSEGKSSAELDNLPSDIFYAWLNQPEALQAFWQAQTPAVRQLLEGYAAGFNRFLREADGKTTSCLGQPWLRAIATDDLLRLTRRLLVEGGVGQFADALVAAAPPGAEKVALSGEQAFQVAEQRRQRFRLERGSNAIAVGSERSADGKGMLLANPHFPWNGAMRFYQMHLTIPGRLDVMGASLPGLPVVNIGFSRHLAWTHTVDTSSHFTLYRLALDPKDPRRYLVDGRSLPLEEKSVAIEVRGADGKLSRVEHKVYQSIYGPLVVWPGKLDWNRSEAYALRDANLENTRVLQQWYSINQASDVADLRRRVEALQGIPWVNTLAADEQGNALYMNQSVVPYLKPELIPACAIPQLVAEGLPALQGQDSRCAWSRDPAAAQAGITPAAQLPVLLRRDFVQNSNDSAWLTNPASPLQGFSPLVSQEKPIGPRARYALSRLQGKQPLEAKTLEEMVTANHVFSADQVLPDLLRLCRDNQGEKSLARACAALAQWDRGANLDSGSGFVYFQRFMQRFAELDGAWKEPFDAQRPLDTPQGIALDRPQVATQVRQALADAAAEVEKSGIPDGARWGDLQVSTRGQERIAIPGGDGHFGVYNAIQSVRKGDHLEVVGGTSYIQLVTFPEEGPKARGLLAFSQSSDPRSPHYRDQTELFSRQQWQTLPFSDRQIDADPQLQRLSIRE

[4] = target: T3, Carboxy-terminal domain RNA polymerase II polypeptide A small phosphatase 1 (Homo sapiens, UniProt Q9GZU7); experiment: CTDSP1 inhibitors, concentration-response, biochemical, absorbance readout, ultra-high-throughput screen actives (AID 540297); assay type: functional
T3 sequence (Q9GZU7 whole entry): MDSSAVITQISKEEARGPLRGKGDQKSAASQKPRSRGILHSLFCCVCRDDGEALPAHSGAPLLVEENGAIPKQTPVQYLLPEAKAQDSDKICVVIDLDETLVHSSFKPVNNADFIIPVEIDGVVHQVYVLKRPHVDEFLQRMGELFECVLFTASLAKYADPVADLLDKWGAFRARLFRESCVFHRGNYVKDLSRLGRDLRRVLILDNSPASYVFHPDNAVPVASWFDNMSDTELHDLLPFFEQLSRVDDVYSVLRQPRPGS

[5] = target: T4, Voltage-gated N-type calcium channel alpha-1B subunit/Amyloid beta A4 precursor protein-binding family A member 1 (Homo sapiens, UniProt Q00975+Q02410); assay type: protein assay
T4 sequence (Q00975 whole entry): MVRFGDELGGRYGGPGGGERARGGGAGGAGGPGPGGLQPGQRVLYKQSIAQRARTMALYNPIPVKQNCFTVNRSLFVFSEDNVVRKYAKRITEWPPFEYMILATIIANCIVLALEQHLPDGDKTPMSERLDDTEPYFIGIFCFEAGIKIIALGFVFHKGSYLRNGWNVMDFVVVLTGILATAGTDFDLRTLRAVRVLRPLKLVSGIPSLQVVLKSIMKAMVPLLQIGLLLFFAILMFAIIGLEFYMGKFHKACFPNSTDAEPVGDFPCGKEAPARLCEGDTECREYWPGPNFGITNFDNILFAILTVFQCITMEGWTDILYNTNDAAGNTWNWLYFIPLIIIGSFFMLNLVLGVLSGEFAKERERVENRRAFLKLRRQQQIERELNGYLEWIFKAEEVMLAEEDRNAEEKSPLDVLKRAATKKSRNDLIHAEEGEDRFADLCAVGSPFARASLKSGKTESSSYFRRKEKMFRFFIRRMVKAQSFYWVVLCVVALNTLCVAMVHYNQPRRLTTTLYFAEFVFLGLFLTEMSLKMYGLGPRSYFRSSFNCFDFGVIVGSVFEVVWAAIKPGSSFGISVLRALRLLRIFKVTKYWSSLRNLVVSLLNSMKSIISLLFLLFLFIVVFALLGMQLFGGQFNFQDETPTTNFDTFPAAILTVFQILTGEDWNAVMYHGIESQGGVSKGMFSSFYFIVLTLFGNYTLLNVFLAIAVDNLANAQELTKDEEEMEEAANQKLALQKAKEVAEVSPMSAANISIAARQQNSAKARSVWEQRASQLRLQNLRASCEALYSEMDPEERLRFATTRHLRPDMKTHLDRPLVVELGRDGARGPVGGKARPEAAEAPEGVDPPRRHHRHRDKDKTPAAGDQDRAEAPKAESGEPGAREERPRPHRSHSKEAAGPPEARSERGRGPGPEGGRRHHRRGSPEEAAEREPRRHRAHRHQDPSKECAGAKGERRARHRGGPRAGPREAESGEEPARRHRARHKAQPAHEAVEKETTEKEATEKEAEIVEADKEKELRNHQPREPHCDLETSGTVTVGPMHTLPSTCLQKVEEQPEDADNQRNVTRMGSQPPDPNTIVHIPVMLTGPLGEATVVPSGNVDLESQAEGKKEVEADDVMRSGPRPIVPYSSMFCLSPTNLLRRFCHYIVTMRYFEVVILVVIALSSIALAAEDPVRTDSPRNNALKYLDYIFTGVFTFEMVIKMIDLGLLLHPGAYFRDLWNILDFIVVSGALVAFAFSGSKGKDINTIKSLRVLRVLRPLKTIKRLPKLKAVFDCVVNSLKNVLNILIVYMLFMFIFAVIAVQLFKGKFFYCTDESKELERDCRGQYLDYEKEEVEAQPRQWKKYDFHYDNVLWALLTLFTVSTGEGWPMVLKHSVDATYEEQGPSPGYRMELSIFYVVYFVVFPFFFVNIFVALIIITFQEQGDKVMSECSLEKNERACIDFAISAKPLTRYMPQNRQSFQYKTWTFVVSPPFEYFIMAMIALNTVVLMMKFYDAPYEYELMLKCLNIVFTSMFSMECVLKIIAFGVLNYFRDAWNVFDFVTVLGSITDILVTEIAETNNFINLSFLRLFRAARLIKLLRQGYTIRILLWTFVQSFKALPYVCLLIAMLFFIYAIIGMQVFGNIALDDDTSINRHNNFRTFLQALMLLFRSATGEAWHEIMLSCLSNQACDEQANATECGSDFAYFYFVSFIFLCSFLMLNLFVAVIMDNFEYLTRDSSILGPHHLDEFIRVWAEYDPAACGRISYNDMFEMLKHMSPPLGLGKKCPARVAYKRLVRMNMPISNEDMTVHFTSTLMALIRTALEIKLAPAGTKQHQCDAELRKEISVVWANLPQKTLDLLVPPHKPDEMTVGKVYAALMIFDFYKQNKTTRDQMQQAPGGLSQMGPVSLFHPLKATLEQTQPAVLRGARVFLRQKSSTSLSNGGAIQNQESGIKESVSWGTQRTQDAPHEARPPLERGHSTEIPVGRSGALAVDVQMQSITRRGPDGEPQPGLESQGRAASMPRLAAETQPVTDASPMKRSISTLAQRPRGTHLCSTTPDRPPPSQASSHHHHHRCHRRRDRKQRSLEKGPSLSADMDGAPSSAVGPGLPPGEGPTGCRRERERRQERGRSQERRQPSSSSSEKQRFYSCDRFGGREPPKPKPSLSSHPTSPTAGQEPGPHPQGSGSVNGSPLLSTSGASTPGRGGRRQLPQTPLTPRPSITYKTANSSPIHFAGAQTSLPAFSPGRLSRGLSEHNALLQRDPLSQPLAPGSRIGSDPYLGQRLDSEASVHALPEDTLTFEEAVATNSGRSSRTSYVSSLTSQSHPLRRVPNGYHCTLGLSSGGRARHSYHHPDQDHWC
T4 sequence (Q02410 whole entry): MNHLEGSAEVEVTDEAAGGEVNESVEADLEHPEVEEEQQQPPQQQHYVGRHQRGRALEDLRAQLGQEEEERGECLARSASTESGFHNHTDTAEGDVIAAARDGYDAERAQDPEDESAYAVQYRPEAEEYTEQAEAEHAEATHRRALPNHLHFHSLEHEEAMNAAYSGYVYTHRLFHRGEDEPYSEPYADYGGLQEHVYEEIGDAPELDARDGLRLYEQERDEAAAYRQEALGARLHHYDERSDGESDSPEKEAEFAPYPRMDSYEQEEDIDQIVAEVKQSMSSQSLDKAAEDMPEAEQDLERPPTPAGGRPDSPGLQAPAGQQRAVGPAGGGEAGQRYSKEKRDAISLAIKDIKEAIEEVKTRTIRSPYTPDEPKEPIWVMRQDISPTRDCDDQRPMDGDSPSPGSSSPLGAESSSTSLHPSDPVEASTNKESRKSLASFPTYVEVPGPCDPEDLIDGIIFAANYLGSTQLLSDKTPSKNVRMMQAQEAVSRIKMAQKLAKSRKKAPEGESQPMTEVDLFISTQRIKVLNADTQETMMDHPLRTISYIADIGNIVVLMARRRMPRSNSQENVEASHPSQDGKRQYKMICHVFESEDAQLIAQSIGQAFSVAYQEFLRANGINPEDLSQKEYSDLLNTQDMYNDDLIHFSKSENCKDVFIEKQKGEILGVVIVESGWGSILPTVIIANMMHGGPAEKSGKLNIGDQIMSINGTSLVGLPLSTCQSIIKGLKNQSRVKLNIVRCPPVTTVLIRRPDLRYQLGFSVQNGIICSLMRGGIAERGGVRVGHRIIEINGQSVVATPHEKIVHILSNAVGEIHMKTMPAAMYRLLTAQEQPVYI

[6] = target: Induced myeloid leukemia cell differentiation protein Mcl-1 (Homo sapiens, UniProt Q07820); assay type: functional
[7] = target: T4, Voltage-gated N-type calcium channel alpha-1B subunit/Amyloid beta A4 precursor protein-binding family A member 1; assay type: protein assay; remark: listed apart in the source
[8] = target: Eukaryotic translation initiation factor 4E (Mus musculus, UniProt P63073); experiment: blockers of eIF4G binding by eIF4E – biochemical, TR-FRET, dose response (AID 855); assay type: functional;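 note: potency for disrupting eIF4E binding to eIF4GI seen as loss of FRET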
Chain of Eukaryotic translation initiation factor 4E (P63073 whole entry): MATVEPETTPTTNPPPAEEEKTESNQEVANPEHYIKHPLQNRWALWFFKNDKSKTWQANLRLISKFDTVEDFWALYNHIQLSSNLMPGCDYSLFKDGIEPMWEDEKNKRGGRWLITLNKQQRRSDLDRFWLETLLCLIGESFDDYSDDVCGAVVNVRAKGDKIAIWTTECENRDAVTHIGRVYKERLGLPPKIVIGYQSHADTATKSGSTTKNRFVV

Protein RecA = target: T5, Protein RecA (Mycobacterium tuberculosis, UniProt P9WHJ3); experiment: Fluorescence Cell-Free Homogeneous Dose Retest to Identify Inhibitors of RecA-Intein Splicing Activity. [Related pubchem assays (depositor defined):AID2097, AID2223, AID489010, AID492950]; assay type: functional
T5 sequence (P9WHJ3 whole entry): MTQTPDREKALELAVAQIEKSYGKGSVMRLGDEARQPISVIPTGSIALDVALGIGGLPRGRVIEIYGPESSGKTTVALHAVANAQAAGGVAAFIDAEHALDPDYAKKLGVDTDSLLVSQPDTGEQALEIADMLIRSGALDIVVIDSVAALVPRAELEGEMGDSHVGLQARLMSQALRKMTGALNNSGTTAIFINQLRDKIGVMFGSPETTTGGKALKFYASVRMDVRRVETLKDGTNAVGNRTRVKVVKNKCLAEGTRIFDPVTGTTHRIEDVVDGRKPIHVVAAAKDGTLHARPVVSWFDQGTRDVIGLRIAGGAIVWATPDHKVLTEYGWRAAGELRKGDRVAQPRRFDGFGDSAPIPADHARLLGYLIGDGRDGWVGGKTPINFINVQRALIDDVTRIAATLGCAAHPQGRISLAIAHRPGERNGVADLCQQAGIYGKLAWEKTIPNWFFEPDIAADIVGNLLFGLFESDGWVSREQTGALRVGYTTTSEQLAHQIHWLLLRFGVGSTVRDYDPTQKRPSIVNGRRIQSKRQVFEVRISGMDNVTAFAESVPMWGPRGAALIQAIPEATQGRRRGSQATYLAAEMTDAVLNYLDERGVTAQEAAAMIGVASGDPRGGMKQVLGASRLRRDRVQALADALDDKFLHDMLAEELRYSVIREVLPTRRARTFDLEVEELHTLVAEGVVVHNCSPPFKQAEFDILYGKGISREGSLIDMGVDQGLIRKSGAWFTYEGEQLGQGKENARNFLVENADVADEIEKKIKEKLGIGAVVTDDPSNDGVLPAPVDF

[9] = target: T6, Replicative DNA helicase DnaB (Mycobacterium tuberculosis, UniProt P9WMR3); experiment: DnaB intein splicing inhibitors, dose response, biochemical, cell-free fluorescence (AID 449749); assay type: functional
T6 sequence (P9WMR3 whole entry): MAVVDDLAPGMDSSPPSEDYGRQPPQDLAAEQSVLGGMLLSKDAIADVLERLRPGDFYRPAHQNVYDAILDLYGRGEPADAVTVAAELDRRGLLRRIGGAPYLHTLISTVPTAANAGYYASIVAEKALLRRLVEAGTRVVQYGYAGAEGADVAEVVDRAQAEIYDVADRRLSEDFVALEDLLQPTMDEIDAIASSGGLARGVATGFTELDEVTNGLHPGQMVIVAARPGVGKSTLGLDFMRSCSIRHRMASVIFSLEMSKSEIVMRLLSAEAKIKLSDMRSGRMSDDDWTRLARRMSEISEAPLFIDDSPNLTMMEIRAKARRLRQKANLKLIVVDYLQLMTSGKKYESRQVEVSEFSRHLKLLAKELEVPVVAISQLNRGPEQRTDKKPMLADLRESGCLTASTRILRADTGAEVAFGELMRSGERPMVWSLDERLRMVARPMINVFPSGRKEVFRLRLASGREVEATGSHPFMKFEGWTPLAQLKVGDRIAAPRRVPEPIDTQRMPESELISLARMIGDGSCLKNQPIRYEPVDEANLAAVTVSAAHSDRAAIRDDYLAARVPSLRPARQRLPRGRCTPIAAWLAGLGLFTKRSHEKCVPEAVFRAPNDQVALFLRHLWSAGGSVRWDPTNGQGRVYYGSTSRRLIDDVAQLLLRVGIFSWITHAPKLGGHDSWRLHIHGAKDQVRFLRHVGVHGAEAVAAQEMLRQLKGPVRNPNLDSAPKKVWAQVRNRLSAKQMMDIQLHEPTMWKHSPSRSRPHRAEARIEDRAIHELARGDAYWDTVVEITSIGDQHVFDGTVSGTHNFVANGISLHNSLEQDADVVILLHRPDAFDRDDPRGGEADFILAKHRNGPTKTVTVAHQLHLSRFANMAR

Genome polyprotein = Genome polyprotein (dengue virus type 2, UniProt P29990); experiment: flavivirus cap methylation enzyme inhibition – biochemical, confirmation dose response, primary screen (AID 588689); assay type: functional
Chain of Genome polyprotein (P29990 2492-3391 limits assumed): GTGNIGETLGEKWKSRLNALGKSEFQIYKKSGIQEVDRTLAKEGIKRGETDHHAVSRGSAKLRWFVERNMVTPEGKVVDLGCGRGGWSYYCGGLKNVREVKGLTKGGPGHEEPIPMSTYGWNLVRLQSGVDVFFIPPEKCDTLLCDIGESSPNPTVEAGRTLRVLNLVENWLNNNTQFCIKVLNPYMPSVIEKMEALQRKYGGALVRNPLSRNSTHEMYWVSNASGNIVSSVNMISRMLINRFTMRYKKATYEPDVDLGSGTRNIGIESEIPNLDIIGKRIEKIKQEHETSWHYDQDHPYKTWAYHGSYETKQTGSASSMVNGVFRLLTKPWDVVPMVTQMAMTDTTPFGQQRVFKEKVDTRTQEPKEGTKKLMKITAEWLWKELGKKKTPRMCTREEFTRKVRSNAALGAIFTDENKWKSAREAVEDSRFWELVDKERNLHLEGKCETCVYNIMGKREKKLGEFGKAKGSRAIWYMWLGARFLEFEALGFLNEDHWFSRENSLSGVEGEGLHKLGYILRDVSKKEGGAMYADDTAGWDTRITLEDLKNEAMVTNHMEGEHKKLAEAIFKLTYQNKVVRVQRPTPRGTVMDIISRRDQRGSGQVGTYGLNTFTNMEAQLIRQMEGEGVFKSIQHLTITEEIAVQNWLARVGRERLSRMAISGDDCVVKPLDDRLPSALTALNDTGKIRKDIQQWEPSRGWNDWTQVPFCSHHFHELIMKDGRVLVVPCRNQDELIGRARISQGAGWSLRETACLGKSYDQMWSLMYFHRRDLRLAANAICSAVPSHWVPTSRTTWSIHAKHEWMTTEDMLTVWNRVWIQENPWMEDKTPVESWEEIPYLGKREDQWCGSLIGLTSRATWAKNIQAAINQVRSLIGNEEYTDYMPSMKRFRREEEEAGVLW

[10] = A cytotoxicity screen of small molecule inhibitors of the PhoP region in Salmonella typhi identified in the primary screen. [Related pubchem assays: 1850, 1864, 1985 ]; assay type: functional
Cytochrome P450 2C19 = Cytochrome P450 2C19 (Homo sapiens, UniProt P33261); experiment: Cytochrome panel assay with activity outcomes. Panel member name: p450-cyp2c19 Compounds with AC50 equal or less than 10 uM are considered active; assay type: functional
Bcl-2-related protein A1 = target: T7, Bcl-2-related protein A1 (Mus musculus, UniProt Q07440); assay type: functional;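 note: confirmatory dose–response counterscreen on Bfl-1, used to check hits from a UBC13 polyubiquitin inhibitor campaign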
T7 sequence (Q07440 whole entry): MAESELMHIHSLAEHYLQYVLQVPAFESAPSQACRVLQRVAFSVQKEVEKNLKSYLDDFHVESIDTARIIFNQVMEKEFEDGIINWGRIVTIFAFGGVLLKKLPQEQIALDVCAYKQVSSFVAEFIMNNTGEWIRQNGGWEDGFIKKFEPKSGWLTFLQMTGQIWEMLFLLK

[11] = target: T8, Ubiquitin-conjugating enzyme E2 N (Homo sapiens, UniProt P61088); assay type: functional
T8 sequence (P61088 whole entry): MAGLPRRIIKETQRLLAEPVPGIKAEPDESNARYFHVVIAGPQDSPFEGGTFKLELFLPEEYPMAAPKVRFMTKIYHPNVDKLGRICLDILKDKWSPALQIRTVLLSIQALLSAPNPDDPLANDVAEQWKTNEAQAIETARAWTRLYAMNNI

[12] = target: T8, Ubiquitin-conjugating enzyme E2 N; assay type: functional; remark: listed apart in the source
[13] = target: Neurotensin receptor type 1 (Homo sapiens, UniProt P30989); assay type: functional;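 note: Image-based confirmatory dose-response assay measuring agonist activity at NTR1; NTR1-expressing U2OS osteosarcoma cells imaged for beta-arrestin GFP spot formation; agonist potency where compounds increase beta-arrestin recruitment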
Chain of Neurotensin receptor type 1 (P30989 whole entry): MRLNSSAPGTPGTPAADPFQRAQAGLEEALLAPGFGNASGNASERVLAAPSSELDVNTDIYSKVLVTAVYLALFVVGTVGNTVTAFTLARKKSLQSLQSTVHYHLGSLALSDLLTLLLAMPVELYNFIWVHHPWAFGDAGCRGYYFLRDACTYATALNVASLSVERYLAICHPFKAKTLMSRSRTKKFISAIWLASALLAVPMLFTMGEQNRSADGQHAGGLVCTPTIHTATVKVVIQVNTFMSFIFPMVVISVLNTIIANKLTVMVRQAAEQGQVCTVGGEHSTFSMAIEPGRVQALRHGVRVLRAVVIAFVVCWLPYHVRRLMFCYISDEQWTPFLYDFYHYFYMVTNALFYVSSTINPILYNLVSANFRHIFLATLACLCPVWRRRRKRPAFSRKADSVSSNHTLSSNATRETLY

[14] = target: DNA dC->dU-editing enzyme APOBEC-3G (Homo sapiens, UniProt Q9HC16); experiment: Dose Response confirmation of small molecule APOBEC3G DNA Deaminase Inhibitors via a fluorescence-based single-stranded DNA deaminase assay. [Related pubchem assays (depositor defined):AID493012, AID493028]; assay type: functional
Chain of DNA dC->dU-editing enzyme APOBEC-3G (Q9HC16 whole entry): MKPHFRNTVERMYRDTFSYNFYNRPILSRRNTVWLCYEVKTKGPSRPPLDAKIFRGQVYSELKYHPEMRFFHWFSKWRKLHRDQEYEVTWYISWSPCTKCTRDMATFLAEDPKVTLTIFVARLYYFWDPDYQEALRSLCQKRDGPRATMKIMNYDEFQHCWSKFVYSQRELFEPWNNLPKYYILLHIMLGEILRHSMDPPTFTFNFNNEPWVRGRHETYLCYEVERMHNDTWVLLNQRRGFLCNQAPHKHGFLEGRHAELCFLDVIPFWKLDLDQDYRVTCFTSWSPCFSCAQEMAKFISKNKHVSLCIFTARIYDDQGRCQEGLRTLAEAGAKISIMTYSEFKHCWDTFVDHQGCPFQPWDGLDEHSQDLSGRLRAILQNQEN

O=C(NC(=S)Nc1ccc2oc(=O)ccc2c1)c1ccccc1F
EC50 [1]: > 55.7 µM (not active)
EC50 [2]: > 55.7 µM (not active)

Cc1cc(NC(=O)c2cc([N+](=O)[O-])cc([N+](=O)[O-])c2C)no1
AC50 [3]: 3.11 µM (active)

CC(=O)c1ccc(NC(=O)CSc2ccsc2[N+](=O)[O-])cc1
IC50 [4]: 3.83 µM (active)
IC50 [5]: 48.2 µM (active)
IC50 [6]: < 0.4 µM (not active)
IC50 [7]: 6 µM (active)
IC50 [8]: 50 µM (inactive)

Cc1ccc(S(=O)(=O)NCCC(C)C)cc1[N+](=O)[O-]
AC50 [3]: 12.5 µM (active)

CC(C)N(C(=O)/C=C/c1cccc([N+](=O)[O-])c1)C(C)C
EC50 [1]: > 55.7 µM (not active)
EC50 [2]: > 55.7 µM (not active)

N#CN(Cc1ccccc1)Cc1ccccc1
AC50 [3]: 1.6 µM (active)

COc1cccc(C(c2c(C)[nH]n(-c3ccccc3)c2=O)c2c(C)[nH]n(-c3ccccc3)c2=O)c1O
EC50 (Protein RecA): 0.829 µM (active)
AC50 [9]: 1.18 µM (active)
IC50 (Genome polyprotein): 38.8 µM (active)
EC50 [10]: > 50 µM (active)
AC50 (Cytochrome P450 2C19): inconclusive

CCOc1ccc(-c2nc(S(=O)(=O)c3ccccc3)c(NC)o2)cc1
IC50 (Bcl-2-related protein A1): > 20 µM (inactive)
IC50 [11]: 19 µM (active)
IC50 [12]: > 20 µM (inactive)

COc1cc2c(cc1OC)C(SC)=NC(C)(C)C2
EC50 [13]: 9.39 µM (active)

Sc1nnc(-c2ccco2)n1/N=C/c1ccccn1
IC50 [14]: 9.12 µM (active)

NC1=NC(=Nc2cccc(S(N)(=O)=O)c2)c2ccccc21
EC50 [1]: > 55.7 µM (not active)
EC50 [2]: > 55.7 µM (not active)

Source: ChEMBL document CHEMBL1201862, “PubChem BioAssay data set” (2004)
